According to PubChem BioAssay (NCI):
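1) Cells in 96-well plates. 2) Compound, 48 h, 5 concentrations. 3) Linear interpolation between surrounding doses. 4) Unreached endpoint = highest concentration. TGI: total growth inhibition.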

Legend:
Assay in all cases: NCI-60 cell line screen, 48 h
786-0 renal = system: 786-0 renal
A498 renal = system: A498 renal
A549 NSCLC = system: A549 NSCLC
ACHN renal = system: ACHN renal
BT-549 breast = system: BT-549 breast
CCRF-CEM leukemia = system: CCRF-CEM leukemia
DU-145 prostate = system: DU-145 prostate
EKVX NSCLC = system: EKVX NSCLC
HCC-2998 colon = system: HCC-2998 colon
HCT-116 colon = system: HCT-116 colon
HCT-15 colon = system: HCT-15 colon
HOP-62 NSCLC = system: HOP-62 NSCLC
HOP-92 NSCLC = system: HOP-92 NSCLC
HS 578T breast = system: HS 578T breast
HT29 colon = system: HT29 colon
IGROV1 ovarian = system: IGROV1 ovarian
K-562 leukemia = system: K-562 leukemia
KM12 colon = system: KM12 colon
LOX IMVI melanoma = system: LOX IMVI melanoma
M14 melanoma = system: M14 melanoma
MALME-3M melanoma = system: MALME-3M melanoma
MCF7 breast = system: MCF7 breast
MDA-MB-231 breast = system: MDA-MB-231 breast
MDA-MB-435 = system: MDA-MB-435
MDA-N = system: MDA-N
MOLT-4 leukemia = system: MOLT-4 leukemia
NCI-H226 lung = system: NCI-H226 lung
NCI-H23 lung = system: NCI-H23 lung
NCI-H460 lung = system: NCI-H460 lung
OVCAR-3 ovarian = system: OVCAR-3 ovarian
OVCAR-5 ovarian = system: OVCAR-5 ovarian
OVCAR-8 ovarian = system: OVCAR-8 ovarian
PC-3 prostate = system: PC-3 prostate
RXF 393 renal = system: RXF 393 renal
SF-268 CNS = system: SF-268 CNS
SF-295 CNS = system: SF-295 CNS
SF-539 CNS = system: SF-539 CNS
SK-MEL-2 melanoma = system: SK-MEL-2 melanoma
SK-MEL-5 melanoma = system: SK-MEL-5 melanoma
SK-OV-3 ovarian = system: SK-OV-3 ovarian
SN12C renal = system: SN12C renal
SNB-19 CNS = system: SNB-19 CNS
SNB-75 CNS = system: SNB-75 CNS
SW-620 colon = system: SW-620 colon
T-47D breast = system: T-47D breast
TK-10 renal = system: TK-10 renal
U251 CNS = system: U251 CNS
UACC-257 melanoma = system: UACC-257 melanoma
UACC-62 melanoma = system: UACC-62 melanoma
UO-31 renal = system: UO-31 renal
CAKI-1 renal = system: CAKI-1 renal
COLO 205 colon = system: COLO 205 colon
NCI-H522 lung = system: NCI-H522 lung
NCI/ADR-RES ovarian = system: NCI/ADR-RES ovarian
RPMI-8226 leukemia = system: RPMI-8226 leukemia
SK-MEL-28 melanoma = system: SK-MEL-28 melanoma
SR leukemia = system: SR leukemia

## COC(=O)CCC(NC(=O)C(C)NC(=O)COC1C(O)C(OC(=O)CCNc2c3ccccc3nc3cccc([N+](=O)[O-])c23)OC(OCc2ccccc2)C1NC(C)=O)C(N)=O (stereo unspecified)
786-0 renal
  TGI: > 10 µM
A498 renal
  TGI: > 10 µM
A549 NSCLC
  TGI: > 10 µM
ACHN renal
  TGI: > 10 µM
BT-549 breast
  TGI: > 10 µM
CCRF-CEM leukemia
  TGI: > 10 µM
DU-145 prostate
  TGI: 7.06 µM
EKVX NSCLC
  TGI: > 10 µM
HCC-2998 colon
  TGI: 5.8 µM
HCT-116 colon
  TGI: 9.11 µM
HCT-15 colon
  TGI: > 10 µM
HOP-62 NSCLC
  TGI: > 10 µM
HOP-92 NSCLC
  TGI: > 10 µM
HS 578T breast
  TGI: > 10 µM
HT29 colon
  TGI: > 10 µM
IGROV1 ovarian
  TGI: > 10 µM
K-562 leukemia
  TGI: > 10 µM
KM12 colon
  TGI: > 10 µM
LOX IMVI melanoma
  TGI: > 10 µM
M14 melanoma
  TGI: > 10 µM
MALME-3M melanoma
  TGI: 7.06 µM
MCF7 breast
  TGI: 9.81 µM
MDA-MB-231 breast
  TGI: > 10 µM
MDA-MB-435
  TGI: > 10 µM
MDA-N
  TGI: 6.04 µM
MOLT-4 leukemia
  TGI: > 10 µM
NCI-H226 lung
  TGI: > 10 µM
NCI-H23 lung
  TGI: > 10 µM
NCI-H460 lung
  TGI: > 10 µM
OVCAR-3 ovarian
  TGI: > 10 µM
OVCAR-5 ovarian
  TGI: > 10 µM
OVCAR-8 ovarian
  TGI: > 10 µM
PC-3 prostate
  TGI: > 10 µM
RXF 393 renal
  TGI: 8.28 µM
SF-268 CNS
  TGI: > 10 µM
SF-295 CNS
  TGI: > 10 µM
SF-539 CNS
  TGI: > 10 µM
SK-MEL-2 melanoma
  TGI: 5.57 µM
SK-MEL-5 melanoma
  TGI: > 10 µM
SK-OV-3 ovarian
  TGI: > 10 µM
SN12C renal
  TGI: > 10 µM
SNB-19 CNS
  TGI: > 10 µM
SNB-75 CNS
  TGI: > 10 µM
SW-620 colon
  TGI: 4.44 µM
T-47D breast
  TGI: > 10 µM
TK-10 renal
  TGI: > 10 µM
U251 CNS
  TGI: > 10 µM
UACC-257 melanoma
  TGI: > 10 µM
UACC-62 melanoma
  TGI: > 10 µM
UO-31 renal
  TGI: > 10 µM

## O=C(NC1CCC(=O)N1C(=O)OCc1ccccc1)OCc1ccccc1 (stereo unspecified)
786-0 renal
  TGI: > 100 µM
A549 NSCLC
  TGI: > 100 µM
ACHN renal
  TGI: > 100 µM
BT-549 breast
  TGI: > 100 µM
CAKI-1 renal
  TGI: > 100 µM
COLO 205 colon
  TGI: > 100 µM
DU-145 prostate
  TGI: > 100 µM
HCC-2998 colon
  TGI: > 100 µM
HCT-15 colon
  TGI: > 100 µM
HOP-62 NSCLC
  TGI: > 100 µM
HOP-92 NSCLC
  TGI: > 100 µM
HS 578T breast
  TGI: > 100 µM
HT29 colon
  TGI: > 100 µM
IGROV1 ovarian
  TGI: > 100 µM
K-562 leukemia
  TGI: > 100 µM
KM12 colon
  TGI: > 100 µM
M14 melanoma
  TGI: > 100 µM
MALME-3M melanoma
  TGI: > 100 µM
MCF7 breast
  TGI: > 100 µM
MDA-MB-231 breast
  TGI: > 100 µM
MDA-MB-435
  TGI: > 100 µM
MDA-N
  TGI: > 100 µM
MOLT-4 leukemia
  TGI: > 100 µM
NCI-H226 lung
  TGI: > 100 µM
NCI-H23 lung
  TGI: > 100 µM
NCI-H460 lung
  TGI: > 100 µM
NCI-H522 lung
  TGI: > 100 µM
NCI/ADR-RES ovarian
  TGI: > 100 µM
OVCAR-3 ovarian
  TGI: > 100 µM
OVCAR-5 ovarian
  TGI: > 100 µM
OVCAR-8 ovarian
  TGI: > 100 µM
PC-3 prostate
  TGI: > 100 µM
RPMI-8226 leukemia
  TGI: > 100 µM
RXF 393 renal
  TGI: > 100 µM
SF-268 CNS
  TGI: > 100 µM
SF-295 CNS
  TGI: > 100 µM
SF-539 CNS
  TGI: > 100 µM
SK-MEL-2 melanoma
  TGI: > 100 µM
SK-MEL-28 melanoma
  TGI: > 100 µM
SK-MEL-5 melanoma
  TGI: > 100 µM
SK-OV-3 ovarian
  TGI: > 100 µM
SN12C renal
  TGI: > 100 µM
SNB-19 CNS
  TGI: > 100 µM
SNB-75 CNS
  TGI: > 100 µM
SR leukemia
  TGI: > 100 µM
SW-620 colon
  TGI: > 100 µM
TK-10 renal
  TGI: > 100 µM
U251 CNS
  TGI: > 100 µM
UACC-257 melanoma
  TGI: > 100 µM
UACC-62 melanoma
  TGI: > 100 µM
UO-31 renal
  TGI: > 100 µM
